“Also recorded” adds a separate entry of the source. Where a name gives a salt, the structure may show the parent alone.
Key:
[1] = Stability in high-temperature experiment (60±2° C.); assay type: physicochemical; conditions: for X-Ray Powder Diffraction / Content (%) / Content of Relevant Substance (%) / Stability in the high-temperature environment: 60±2° C.; for Stability in the high-temperature environment / Stability under stability test conditions (summary): hydrochloride; for Stability under stability test conditions (summary): summary over high temperature, high humidity and strong light irradiation
Method: Demethyleneberberine hydrochloride crystals A, B, C and D are taken in an appropriate amount and placed in plates numbered as A1, B1, C1 and D1 respectively, and then the plates are placed in a high-temperature environment at 60±2° C. respectively for stability test.

[2] = Stability in high-humidity experiment (RH90±5%); assay type: physicochemical
Source text: Demethyleneberberine hydrochloride crystals A, B, C and D are taken in an appropriate amount and placed in plates numbered as A2, B2, C2 and D2 respectively, and then the plates are placed in a high-humidity environment at RH90±5% respectively for stability test.

[3] = Stability in strong light irradiation experiment (4,500 lx±500 lx); assay type: physicochemical; conditions: for Stability in the strong light irradiation environment: hydrochloride
Source text: Demethyleneberberine hydrochloride crystals A, B, C and D are taken in an appropriate amount and placed in plates numbered as A3, B3, C3 and D3 respectively, and then the plates are placed in a strong light irradiation environment at 4,500 lx±500 lx respectively for stability test.

[4] = Solubility in water system at different temperatures, HPLC; assay type: physicochemical; conditions: hydrochloride; for Solubility comparison of the four crystal forms (summary): summary over water, methanol and ethanol systems; for Solubility ranking among the four crystal forms: water system, different temperatures, FIG. 13
Method: Demethyleneberberine hydrochloride crystals A, B, C and D are taken in an appropriate amount and the solubility of demethyleneberberine hydrochloride crystals A, B, C and D at different temperatures in a water system is studied respectively. 20 μl of sample is taken at each temperature node and detected by HPLC.

[5] = Solubility in methanol system at different temperatures, HPLC; assay type: physicochemical; conditions: FIG. 14, hydrochloride
Method: Demethyleneberberine hydrochloride crystals A, B, C and D are taken in an appropriate amount and the solubility of demethyleneberberine hydrochloride crystals A, B, C and D at different temperatures in a methanol system is studied respectively. 20 μl of sample is taken at each temperature node and detected by HPLC.

[6] = Solubility in ethanol system at different temperatures, HPLC; assay type: physicochemical; conditions: FIG. 15, hydrochloride
Method: Demethyleneberberine hydrochloride crystals A, B, C and D are taken in an appropriate amount and the solubility of demethyleneberberine hydrochloride crystals A, B, C and D at different temperatures in an ethanol system is studied respectively. 20 μl of sample is taken at each temperature node and detected by HPLC.

[7] = Determination of blood concentration in rats after ig administration; assay type: in vivo; conditions: male SD rats, ig 200 mg/kg, plasma, hydrochloride; for AUC: calculated from the experimental results
Method: Male SD rats are adaptively bred for 3 days, and rats having (220±20) g body weight are selected and divided into 5 groups, namely, blank group, demethyleneberberine hydrochloride crystal form A group, demethyleneberberine hydrochloride crystal form B group, demethyleneberberine hydrochloride crystal form C group and demethyleneberberine hydrochloride crystal form D group. Food supply is stopped for 12 h for gastric emptying before the experiment. For the rats in the experimental groups, ig (intragastric) administration dosage is 200 mg/kg. 0.2 ml of blood is taken from the orbits of the rats at 5 min., 15 min., 30 min., 1 h, 2 h, 6 h and 12 h respectively after ig administration, the whole blood is centrifuged, and 100 μl of plasma is taken and frozen at −20° C. for use later. 100 μl of plasma sample is taken, 200 μl of methanol is added into the plasma sample, the mixture is vortexed for 5 min., and then centrifuged at 10,000 r/min. for 15 min. in a centrifuge; the supernatant is taken and tested by HPLC. […] Through calculation on the basis of the experimental results, it is determined: DAUC=3.675 μg×ml^−1×h>AAUC=1.247 μg×ml^−1×h>BAUC=1.150 μg×ml^−1×h>CAUC=1.077 μg×ml^−1×h.

[8] = day 0, listed as C1, hydrochloride
[9] = day 5, listed as C1, hydrochloride
[10] = day 10, listed as C1, hydrochloride
[11] = day 0, listed as C2, hydrochloride
[12] = day 5, listed as C2, hydrochloride
[13] = day 10, listed as C2, hydrochloride
[14] = day 0, listed as C3, hydrochloride
[15] = day 5, listed as C3, hydrochloride
[16] = day 10, listed as C3, hydrochloride
[17] = day 0, listed as D1, hydrochloride
[18] = day 5, listed as D1, hydrochloride
[19] = day 10, listed as D1, hydrochloride
[20] = day 0, listed as D2, hydrochloride
[21] = day 5, listed as D2, hydrochloride
[22] = day 10, listed as D2, hydrochloride
[23] = day 0, listed as D3, hydrochloride
[24] = day 5, listed as D3, hydrochloride
[25] = day 10, listed as D3, hydrochloride

For `COc1ccc2cc3[n+](cc2c1OC)CCc1cc(O)c(O)cc1-3` [crystal form C, demethyleneberberine hydrochloride], the “X-Ray Powder Diffraction” value ([1]; day 0) was “Unchanged”, the “Content (%)” value [1, 8] was 99.18% and the “Content of Relevant Substance (%)” value [1, 8] was 0.82%. For the same molecule, the “X-Ray Powder Diffraction” value ([1]; day 5) was “Unchanged”, the “Content (%)” value [1, 9] was 99.21% and the “Content of Relevant Substance (%)” value [1, 9] was 0.79%. The “Content (%)” value [1, 10] was 99.19%, the “Content of Relevant Substance (%)” value [1, 10] was 0.81% and the “X-Ray Powder Diffraction” value [1, 10] was “Unchanged”. For the same molecule, the “Stability in the high-temperature environment” value [1] was “relatively stable”, the “Stability under stability test conditions (summary)” value [1] was “stable” and the “Stability in the high-humidity environment” value [2] was “relatively stable”. For the same molecule, the “X-Ray Powder Diffraction” value ([2]; day 0) was “Unchanged”, the “Content (%)” value [2, 11] was 99.77% and the “Content of Relevant Substance (%)” value [2, 11] was 0.23%. For the same molecule, the “X-Ray Powder Diffraction” value ([2]; day 5) was “Unchanged”, the “Content (%)” value [2, 12] was 99.72% and the “Content of Relevant Substance (%)” value [2, 12] was 0.28%. The “X-Ray Powder Diffraction” value ([2]; day 10) was “Unchanged”, the “Content (%)” value [2, 13] was 99.57% and the “Content of Relevant Substance (%)” value [2, 13] was 0.43%. For the same molecule, the “X-Ray Powder Diffraction” value ([3]; day 0) was “Unchanged”, the “Content (%)” value [3, 14] was 99.57% and the “Content of Relevant Substance (%)” value [3, 14] was 0.43%. For the same molecule, the “X-Ray Powder Diffraction” value ([3]; day 5) was “Unchanged”, the “Content (%)” value [3, 15] was 99.49% and the “Content of Relevant Substance (%)” value [3, 15] was 0.51%. The “Content (%)” value [3, 16] was 99.55%, the “Content of Relevant Substance (%)” value [3, 16] was 0.45% and the “X-Ray Powder Diffraction” value [3, 16] was “Unchanged”. For the same molecule, the “Stability in the strong light irradiation environment” value [3] was “relatively stable”, the “Solubility comparison of the four crystal forms (summary)” value [4] was “highest; also recorded: >solubility of crystal form B of demethyleneberberine hydrochloride” and the “Solubility ranking among the four crystal forms” value [4] was “>solubility of crystal form B of demethyleneberberine hydrochloride”. For the same molecule, the “Solubility ranking among the four crystal forms” value [5] was “>solubility of crystal form B of demethyleneberberine hydrochloride”, the “Solubility ranking among the four crystal forms” value [6] was “>solubility of crystal form B of demethyleneberberine hydrochloride” and the AUC [7] was 1077 ng·h/mL. The Cmax [7] was 1262 ng/mL and the tmax [7] was 0.5 h.

For `COc1ccc2cc3[n+](cc2c1OC)CCc1cc(O)c(O)cc1-3` [crystal form D, demethyleneberberine hydrochloride], the “X-Ray Powder Diffraction” value ([1]; day 0) was “Unchanged”, the “Content (%)” value [1, 17] was 99.78% and the “Content of Relevant Substance (%)” value [1, 17] was 0.22%. For the same molecule, the “X-Ray Powder Diffraction” value ([1]; day 5) was “Unchanged”, the “Content (%)” value [1, 18] was 99.83% and the “Content of Relevant Substance (%)” value [1, 18] was 0.17%. For the same molecule, the “Content (%)” value [1, 19] was 99.71%, the “Content of Relevant Substance (%)” value [1, 19] was 0.29% and the “X-Ray Powder Diffraction” value [1, 19] was “Changed”. The “Stability in the high-temperature environment” value [1] was “unstable in the long-term high-temperature environment, and undergoes crystal transformation”, the “Stability under stability test conditions (summary)” value [1] was “tends to have crystal transformation under conditions such as high temperature and strong light irradiation” and the “Stability in the high-humidity environment” value [2] was “relatively stable”. For the same molecule, the “X-Ray Powder Diffraction” value ([2]; day 0) was “Unchanged”, the “Content (%)” value [2, 20] was 99.48% and the “Content of Relevant Substance (%)” value [2, 20] was 0.52%. The “X-Ray Powder Diffraction” value ([2]; day 5) was “Unchanged”, the “Content (%)” value [2, 21] was 99.41% and the “Content of Relevant Substance (%)” value [2, 21] was 0.59%. The “X-Ray Powder Diffraction” value ([2]; day 10) was “Unchanged”, the “Content (%)” value [2, 22] was 99.32% and the “Content of Relevant Substance (%)” value [2, 22] was 0.68%. The “X-Ray Powder Diffraction” value ([3]; day 0) was “Unchanged”, the “Content (%)” value [3, 23] was 99.78% and the “Content of Relevant Substance (%)” value [3, 23] was 0.22%. The “X-Ray Powder Diffraction” value ([3]; day 5) was “Unchanged”, the “Content (%)” value [3, 24] was 99.58% and the “Content of Relevant Substance (%)” value [3, 24] was 0.42%. The “Content (%)” value [3, 25] was 99.64%, the “Content of Relevant Substance (%)” value [3, 25] was 0.36% and the “X-Ray Powder Diffraction” value [3, 25] was “Changed”. For the same molecule, the “Stability in the strong light irradiation environment” value [3] was “unstable in the long-term strong light irradiation environment, and undergoes crystal transformation”, the “Solubility comparison of the four crystal forms (summary)” value [4] was “lowest; also recorded: solubility of crystal form A of demethyleneberberine hydrochloride>solubility of crystal form D” and the “Solubility ranking among the four crystal forms” value [4] was “solubility of crystal form A of demethyleneberberine hydrochloride>solubility of crystal form D”. For the same molecule, the “Solubility ranking among the four crystal forms” value [5] was “solubility of crystal form A of demethyleneberberine hydrochloride>solubility of crystal form D”, the “Solubility ranking among the four crystal forms” value [6] was “solubility of crystal form A of demethyleneberberine hydrochloride>solubility of crystal form D” and the AUC [7] was 3675 ng·h/mL. For the same molecule, the Cmax [7] was 1234 ng/mL and the tmax [7] was 2 h.

Reference: US11242340B2, “Crystal forms of demethyleneberberine hydrochloride and preparation method therefor” (priority 2018, dated 2022)
